The record followed here is patent publication US10532066B2, “Surfactant lipids, compositions thereof, and uses thereof” (National Jewish Health, priority 2007, dated 2020).

The target of one assay is T1, TLR3 (Homo sapiens, UniProt O15455).
T1 sequence (O15455 24-904): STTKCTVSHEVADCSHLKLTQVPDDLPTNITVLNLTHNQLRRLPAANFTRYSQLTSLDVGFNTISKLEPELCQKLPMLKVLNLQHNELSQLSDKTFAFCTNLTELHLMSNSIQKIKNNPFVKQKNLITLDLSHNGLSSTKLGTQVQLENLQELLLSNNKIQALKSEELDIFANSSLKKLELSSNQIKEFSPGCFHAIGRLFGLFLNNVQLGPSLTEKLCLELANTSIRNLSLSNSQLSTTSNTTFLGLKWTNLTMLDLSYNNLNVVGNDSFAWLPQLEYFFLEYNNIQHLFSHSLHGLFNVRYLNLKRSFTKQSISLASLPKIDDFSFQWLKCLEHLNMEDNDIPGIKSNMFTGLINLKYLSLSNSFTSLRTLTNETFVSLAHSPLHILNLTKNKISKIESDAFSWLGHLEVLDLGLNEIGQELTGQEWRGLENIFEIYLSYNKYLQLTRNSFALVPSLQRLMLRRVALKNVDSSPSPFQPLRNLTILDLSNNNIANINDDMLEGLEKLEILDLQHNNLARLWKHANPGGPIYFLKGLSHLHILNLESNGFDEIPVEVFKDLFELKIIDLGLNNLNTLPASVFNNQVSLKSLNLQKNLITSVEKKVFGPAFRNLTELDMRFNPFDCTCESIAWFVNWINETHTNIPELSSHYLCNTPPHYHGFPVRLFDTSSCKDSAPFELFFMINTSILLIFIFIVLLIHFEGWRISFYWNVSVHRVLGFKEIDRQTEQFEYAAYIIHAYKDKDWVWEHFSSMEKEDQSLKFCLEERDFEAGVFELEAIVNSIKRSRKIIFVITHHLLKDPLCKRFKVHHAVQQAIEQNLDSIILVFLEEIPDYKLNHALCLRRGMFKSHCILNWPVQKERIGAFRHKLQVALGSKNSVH
Kind of assay: TLR agonist IL-8 production in BEAS2B epithelial cells, TLR3. Type of assay: cell-based. Details: endogenous in cells; host or cells: BEAS2B. The note with it: poly IC, 48 h. Here is the method: In this experiment, multiple TLRs were stimulated with defined TLR agonists for 48 h, and the IL-8 production was measured. In each case, the maximal stimulation by agonist is set at 100% and the antagonism by POPG or PI is expressed as the relative % response. The Controls consist of no treatment, or treatment with POPG, or phosphatidylcholine (POPC), or phosphatidylinositol (PI), in the absence of agonist as indicated. The agonists for the TLRs consist of Pam3Cys for TLR1/2, Mycoplasma pneumoniae membranes as an agonist for TLR2, Mycoplasma fermentans derived MALP2 as an agonist for TLR 2/6, double stranded RNA (poly IC) for TLR3, and bacterial flagellin (Fla) as an agonist for TLR5.
Monolayers of BEAS2B cells were challenged with the TLR1/2 agonist, Pam3Cys (25 ug/ml); the TLR 2/6 agonist MALP2 (10 ng/ml); the TLR2 agonist mycoplasma membrane (Mem) (1 ug/ml); the TLR3 agonist, poly I:C (0.1 ug/ml); and the TLR5 agonist, flagellin (100 ng/ml). For each agonist parallel incubations were performed containing 200 ug/ml POPG as liposomes, or 200 ug/ml POPG as nanodises as indicated.

The next assay has as its system BALB/c mice. Put plainly: Sepsis model: intravenous LPS, intratracheal phospholipids. Type of assay: in vivo, mouse. As to conditions: LPS 50 μg i.v., phospholipids 50 μg intratracheal, 3 h. As to the method:
FIG. 10. Anionic phospholipids modulate lung inflammation induced by intravenously administered LPS. Phospholipids were dried under nitrogen and hydrated, and liposomes were formed using a Liposofast™. […] At the same time, LPS (50 μg) in 200 μl of PBS was intravenously administered to mice.
Next, the effect of phospholipids were examined in a sepsis model in mice. LPS (50 μG/200 μl) was intravenously administered to mice via the tail vein and phospholipids were administered intratracheally at the same time. Three hours after stimulation, BALF was collected (FIG. 10).

Assay [1] has as its system Respiratory Syncytial Virus (RSV). Kind of assay: Cytopathic effects of RSV upon NHBE cells (photomicrography). It counts as cell-based. As to the method:
Monolayers of NHBE cells were infected with RSV at a multiplicity of 3 for 72 h. Infections were performed on cells in either the absence or the presence of POPG (200 ug/ml). The cell monolayers were photographed at a magnification of 200×. Controls consisted of no viral challenge in either the presence or absence of POPG as indicated.
Monolayers of NHBE cells were infected with RSV at a multiplicity of 3 for 72 h. Infections were performed on cells in either the absence (b) or the presence (c,f) of POPG (200 ug/ml) and POPC (200 ug/ml) as indicated. Cells were photographed at a magnification of 200×. Controls (a,d,e) consisted of cell layers either not exposed to virus or exposed to POPG, and POPC in the absence of virus as indicated.
Monolayers of normal human bronchial epithelial cells were infected with RSV at a multiplicity of 0.5-1, in either the presence or absence of 200 ug/ml POPG, or 200 ug/ml POPC, as indicated.
A general note: Cytopathic effects are the visible damage that an infection or toxin causes in cultured cells.

For assay [2] the test system is unchanged. Put plainly: RSV replication in NHBE cells (anti-RSV antibody staining). Type of assay: cell-based. As to conditions: multiplicity 3, 72 h, POPG 200 ug/ml. As to the method: Monolayers of BEAS2B and NHBE cells were infected with RSV at a multiplicity of 3 for 72 h. Infections were performed on cells in either the absence or the presence of POPG (200 ug/ml). The cell monolayers were fixed and stained with goat anti-human RSV antibody conjugated with horseradish peroxidase. The presence of the antibody was detected with diaminobenzamidine. Controls consisted of cell layers not exposed to the virus or exposed to POPG in the absence of virus as indicated.

As to phosphatidylinositol [PI], on TLR3, the “activity of TLR3 (IL-8 production)” value was “inhibit”.

In the case of `CCCCCCCC/C=C\CCCCCCCC(=O)O[C@H](COC(=O)CCCCCCCCCCCCCCC)COP(=O)(O)OCC(O)CO` (stereo partly drawn) [POPG, palmitoyl-oleoyl-phosphatidylglycerol], in the assay with BALB/c mice, the “KC levels in BALF” value was “significantly attenuated”, the “MIP-2 levels in BALF” value is “significantly attenuated”, the “TNF-α secretion in BALF” value was “significantly inhibited” and the “infiltration of neutrophils in BALF” value is reported as “effectively inhibited”. In assay [1] (multiplicity 0.5-1, 72 h, 200 ug/ml), the “killing of cells by RSV” value is “prevents the killing”. For the same compound, in assay [1] (multiplicity 3, 72 h, lipid 200 ug/ml), the “cytopathic effects of RSV” value is “prevents the cytopathic effects”. For the same compound, in assay [2], the viral replication entry is “prevents viral replication”. Besides, the “activity of TLR3 (IL-8 production)” value at TLR3 is reported as “inhibit”.
